Source: patent publication US9211310B2, “Use of a Chinese medicine composition in preparing medicaments for treating secondary prevention of myocardial infarction” (TASLY PHARMACEUTICAL GROUP CO., LTD, priority 2010, dated 2015)

Test system: patients after acute myocardial infarction
Assay: TCM symptom score, total and single (chest pain, chest tightness, short breath, fatigue, palpitation, spontaneous perspiration, pale complexion), same clinical trial
Assay type: in vivo, human
Parameters: total score of TCM symptom, Mean / total score of TCM symptom, Min / total score of TCM symptom, Max / total score of TCM symptom, Md / change of total score of TCM symptom, Mean / change of total score of TCM symptom, Max / change of total score of TCM symptom, Md: scale not given here
Excerpt: 3508 patients who were in accordance with the diagnostic standards of AMI for 28 days to 2 years and differentiated as Qi deficiency and blood stagnation syndrome by TCM were studied. 0.5 g Chinese medicine composition prepared by the method of EXAMPLE 1 (Coded as QSYQ) was administrated half an hour after meal, 3 times per day.
They included the overall survival time, angina pectoris score, TCM symptom score and life quality score, where angina pectoris score, TCM symptom score and life quality score were evaluated at randomization, in 1st, 3rd, 6th, 9th, 12th month after treatment and 18th month after follow-up.
The analysis method referred to the angina pectoris score.

## CC(=O)Oc1ccccc1C(=O)O [Control group, aspirine]
FAS, Follow-up-baseline
  change of pale complexion −1, number of patients: 39
  change of pale complexion −1, percent of patients: (2.75%)
  change of palpitation 0, number of patients: 690
  change of palpitation 0, percent of patients: (48.46%)
  change of palpitation 1, number of patients: 528
  change of palpitation 1, percent of patients: (37.08%)
  change of palpitation 2, number of patients: 97
  change of palpitation 2, percent of patients: (6.81%)
  change of palpitation 3, number of patients: 15
  change of palpitation 3, percent of patients: (1.05%)
  change of palpitation −1, number of patients: 90
  change of palpitation −1, percent of patients: (6.32%)
  change of palpitation −2, number of patients: 3
  change of palpitation −2, percent of patients: (0.21%)
  change of palpitation −3, number of patients: 1
  change of palpitation −3, percent of patients: (0.07%)
  change of short breath 0, % of patients: (52.21%)
  change of short breath 0, number of patients: 744
  change of short breath 2, % of patients: (36.42%)
  change of short breath 2, number of patients: 519
  change of short breath 4, % of patients: (5.47%)
  change of short breath 4, number of patients: 78
  change of short breath 6, % of patients: (0.77%)
  change of short breath 6, number of patients: 11
  change of short breath −2, % of patients: (4.98%)
  change of short breath −2, number of patients: 71
  change of short breath −4, % of patients: (0.00%)
  change of short breath −4, number of patients: 0
  change of short breath −6, % of patients: (0.14%)
  change of short breath −6, number of patients: 2
  change of spontaneous perspiration 0, number of patients: 656
  change of spontaneous perspiration 0, percent of patients: (46.07%)
  change of spontaneous perspiration 1, number of patients: 466
  change of spontaneous perspiration 1, percent of patients: (32.72%)
  change of spontaneous perspiration 2, number of patients: 141
  change of spontaneous perspiration 2, percent of patients: (9.90%)
  change of spontaneous perspiration 3, number of patients: 32
  change of spontaneous perspiration 3, percent of patients: (2.25%)
  change of spontaneous perspiration −1, percent of patients: (8.36%)
  change of spontaneous perspiration −2, number of patients: 8
  change of spontaneous perspiration −2, percent of patients: (0.56%)
  change of spontaneous perspiration −3, number of patients: 2
  change of spontaneous perspiration −3, percent of patients: (0.14%)
  change of total score of TCM symptom, Max: 27.00
  change of total score of TCM symptom, Md: −5.00
  change of total score of TCM symptom, Mean: −6.18
  change of total score of TCM symptom, Min: −29.00
Follow-up-baseline, FAS
  change of chest pain score 0, number of patients: 769
  change of chest pain score 0, percent of patients: (54.08%)
  change of chest pain score 3, number of patients: 426
  change of chest pain score 3, percent of patients: (29.96%)
  change of chest pain score 6, number of patients: 158
  change of chest pain score 6, percent of patients: (11.11%)
  change of chest pain score 9, number of patients: 9
  change of chest pain score 9, percent of patients: (0.63%)
  change of chest pain score −2, number of patients: 1
  change of chest pain score −2, percent of patients: (0.07%)
  change of chest pain score −3, number of patients: 47
  change of chest pain score −3, percent of patients: (3.31%)
  change of chest pain score −6, number of patients: 11
  change of chest pain score −6, percent of patients: (0.77%)
  change of chest pain score −9, number of patients: 1
  change of chest pain score −9, percent of patients: (0.07%)
  change of chest tightness score 0, number of patients: 728
  change of chest tightness score 0, percent of patients: (51.09%)
  change of chest tightness score 1, number of patients: 1
  change of chest tightness score 1, percent of patients: (0.07%)
  change of chest tightness score 3, number of patients: 544
  change of chest tightness score 3, percent of patients: (38.18%)
  change of chest tightness score 6, number of patients: 87
  change of chest tightness score 6, percent of patients: (6.11%)
  change of chest tightness score 9, number of patients: 5
  change of chest tightness score 9, percent of patients: (0.35%)
  change of chest tightness score −3, number of patients: 55
  change of chest tightness score −3, percent of patients: (3.86%)
  change of chest tightness score −6, number of patients: 4
  change of chest tightness score −6, percent of patients: (0.28%)
  change of chest tightness score −9, number of patients: 1
  change of chest tightness score −9, percent of patients: (0.07%)
Follow-up-baseline, PP
  change of chest pain score 0, number of patients: 750
  change of chest pain score 0, percent of patients: (54.03%)
  change of chest pain score 3, number of patients: 417
  change of chest pain score 3, percent of patients: (30.04%)
  change of chest pain score 6, number of patients: 155
  change of chest pain score 6, percent of patients: (11.17%)
  change of chest pain score 9, number of patients: 8
  change of chest pain score 9, percent of patients: (0.58%)
  change of chest pain score −2, number of patients: 1
  change of chest pain score −2, percent of patients: (0.07%)
  change of chest pain score −3, number of patients: 47
  change of chest pain score −3, percent of patients: (3.39%)
  change of chest pain score −6, number of patients: 9
  change of chest pain score −6, percent of patients: (0.65%)
  change of chest pain score −9, number of patients: 1
  change of chest pain score −9, percent of patients: (0.07%)
  change of chest tightness score 0, number of patients: 712
  change of chest tightness score 0, percent of patients: (51.19%)
  change of chest tightness score 1, number of patients: 1
  change of chest tightness score 1, percent of patients: (0.07%)
  change of chest tightness score 3, number of patients: 528
  change of chest tightness score 3, percent of patients: (37.96%)
  change of chest tightness score 6, number of patients: 86
  change of chest tightness score 6, percent of patients: (6.18%)
  change of chest tightness score 9, number of patients: 5
  change of chest tightness score 9, percent of patients: (0.36%)
  change of chest tightness score −3, number of patients: 54
  change of chest tightness score −3, percent of patients: (3.88%)
  change of chest tightness score −6, number of patients: 4
  change of chest tightness score −6, percent of patients: (0.29%)
  change of chest tightness score −9, number of patients: 1
  change of chest tightness score −9, percent of patients: (0.07%)
Follow-up, FAS
  chest pain score 0, number of patients: 754
  chest pain score 0, percent of patients: (52.84%)
  chest pain score 2, number of patients: 1
  chest pain score 2, percent of patients: (0.07%)
  chest pain score 3, number of patients: 479
  chest pain score 3, percent of patients: (33.57%)
  chest pain score 6, number of patients: 192
  chest pain score 6, percent of patients: (13.45%)
  chest pain score 9, number of patients: 1
  chest pain score 9, percent of patients: (0.07%)
  chest tightness score 0, number of patients: 754
  chest tightness score 0, percent of patients: (52.84%)
  chest tightness score 2, number of patients: 1
